Data published in patent publication US20220009920A1 (GB005, Inc., priority 2020, published 2022).
Like-named read-outs stand apart in the source and are kept apart here.

What was measured:
Test in all cases: Large panel kinase profiling
Format in all cases: biochemical
MAP3K11 = MAP3K11 (Homo sapiens, UniProt Q16584); settings: 1 μM test article, 1 mM ATP
In short: (§1)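 At 30° C., kinases turned over a CSox-Sensor peptide substrate with 1 mM ATP while 1 μM test article was present. Progress was followed by kinetic fluorescence readings.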

NEK9 = biological target: T1, NEK9 (Homo sapiens, UniProt Q8TD19); settings: 1 μM test article, 1 mM ATP
T1 construct: AssayQuant Technologies, Inc. (assay service)
T1 sequence (Q8TD19 1-979): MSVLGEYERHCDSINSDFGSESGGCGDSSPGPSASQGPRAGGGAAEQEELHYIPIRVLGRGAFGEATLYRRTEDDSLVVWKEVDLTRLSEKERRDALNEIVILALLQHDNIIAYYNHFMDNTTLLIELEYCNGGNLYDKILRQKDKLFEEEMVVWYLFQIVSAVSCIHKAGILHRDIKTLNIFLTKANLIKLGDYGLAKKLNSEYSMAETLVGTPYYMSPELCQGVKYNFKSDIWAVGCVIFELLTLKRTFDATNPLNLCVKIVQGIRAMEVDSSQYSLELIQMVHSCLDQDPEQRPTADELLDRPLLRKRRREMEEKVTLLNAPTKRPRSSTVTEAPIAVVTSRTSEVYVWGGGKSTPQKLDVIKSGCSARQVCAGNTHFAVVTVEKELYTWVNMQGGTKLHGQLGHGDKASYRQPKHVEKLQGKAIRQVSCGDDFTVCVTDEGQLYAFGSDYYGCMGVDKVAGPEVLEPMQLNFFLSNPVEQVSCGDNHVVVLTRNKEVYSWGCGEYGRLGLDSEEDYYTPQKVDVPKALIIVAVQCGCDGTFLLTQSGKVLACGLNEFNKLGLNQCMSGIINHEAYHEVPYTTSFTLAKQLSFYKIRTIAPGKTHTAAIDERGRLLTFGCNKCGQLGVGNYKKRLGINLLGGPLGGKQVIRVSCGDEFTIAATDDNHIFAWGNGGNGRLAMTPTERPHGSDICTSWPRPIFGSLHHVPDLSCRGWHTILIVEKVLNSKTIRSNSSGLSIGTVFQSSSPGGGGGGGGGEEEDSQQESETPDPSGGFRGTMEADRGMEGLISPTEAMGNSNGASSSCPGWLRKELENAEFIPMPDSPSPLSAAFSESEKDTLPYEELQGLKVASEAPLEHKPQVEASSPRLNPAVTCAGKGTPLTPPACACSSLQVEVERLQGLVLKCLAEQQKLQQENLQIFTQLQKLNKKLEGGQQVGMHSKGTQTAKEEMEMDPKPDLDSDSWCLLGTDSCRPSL
In short: as §1

PTK2B = PTK2B (Homo sapiens, UniProt Q14289)
PTK2B, sequence (Q14289 whole entry, species assumed): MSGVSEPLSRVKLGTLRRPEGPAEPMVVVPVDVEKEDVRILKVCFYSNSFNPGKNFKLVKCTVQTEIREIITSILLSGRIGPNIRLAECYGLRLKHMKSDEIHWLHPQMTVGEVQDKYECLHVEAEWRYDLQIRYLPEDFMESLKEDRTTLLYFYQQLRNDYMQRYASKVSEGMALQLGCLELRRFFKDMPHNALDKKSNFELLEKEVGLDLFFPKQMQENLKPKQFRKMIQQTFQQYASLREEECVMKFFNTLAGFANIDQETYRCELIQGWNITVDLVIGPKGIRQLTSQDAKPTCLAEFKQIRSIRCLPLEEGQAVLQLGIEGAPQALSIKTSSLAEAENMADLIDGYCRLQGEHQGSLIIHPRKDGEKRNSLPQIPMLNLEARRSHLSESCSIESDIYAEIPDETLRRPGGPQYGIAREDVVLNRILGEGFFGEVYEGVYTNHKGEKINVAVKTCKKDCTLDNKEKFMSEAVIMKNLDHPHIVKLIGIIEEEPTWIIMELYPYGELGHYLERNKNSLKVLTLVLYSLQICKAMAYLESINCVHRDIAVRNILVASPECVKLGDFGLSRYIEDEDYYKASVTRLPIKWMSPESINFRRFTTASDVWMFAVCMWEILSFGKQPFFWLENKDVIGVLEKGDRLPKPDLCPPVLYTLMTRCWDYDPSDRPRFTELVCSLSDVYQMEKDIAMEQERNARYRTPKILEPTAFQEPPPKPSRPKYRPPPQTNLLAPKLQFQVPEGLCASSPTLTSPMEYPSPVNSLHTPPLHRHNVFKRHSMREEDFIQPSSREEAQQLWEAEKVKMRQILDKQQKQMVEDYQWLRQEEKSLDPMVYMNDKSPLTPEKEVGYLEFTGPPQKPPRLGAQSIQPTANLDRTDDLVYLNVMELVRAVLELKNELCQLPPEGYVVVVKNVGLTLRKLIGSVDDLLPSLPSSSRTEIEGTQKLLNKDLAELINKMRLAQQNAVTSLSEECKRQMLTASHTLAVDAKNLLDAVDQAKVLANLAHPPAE
In short: as §1

CDC42BPB/MRCKB = biological target: T2, CDC42BPB/MRCKB (Homo sapiens, UniProt Q9Y5S2); settings: 1 μM test article, 1 mM ATP
T2 construct: AssayQuant Technologies, Inc. (ran the panel)
In short: as §1

EPHA4 = EPHA4 (Homo sapiens, UniProt P54764); settings: 1 μM test article, 1 mM ATP
EPHA4, sequence (P54764 20-986, species assumed): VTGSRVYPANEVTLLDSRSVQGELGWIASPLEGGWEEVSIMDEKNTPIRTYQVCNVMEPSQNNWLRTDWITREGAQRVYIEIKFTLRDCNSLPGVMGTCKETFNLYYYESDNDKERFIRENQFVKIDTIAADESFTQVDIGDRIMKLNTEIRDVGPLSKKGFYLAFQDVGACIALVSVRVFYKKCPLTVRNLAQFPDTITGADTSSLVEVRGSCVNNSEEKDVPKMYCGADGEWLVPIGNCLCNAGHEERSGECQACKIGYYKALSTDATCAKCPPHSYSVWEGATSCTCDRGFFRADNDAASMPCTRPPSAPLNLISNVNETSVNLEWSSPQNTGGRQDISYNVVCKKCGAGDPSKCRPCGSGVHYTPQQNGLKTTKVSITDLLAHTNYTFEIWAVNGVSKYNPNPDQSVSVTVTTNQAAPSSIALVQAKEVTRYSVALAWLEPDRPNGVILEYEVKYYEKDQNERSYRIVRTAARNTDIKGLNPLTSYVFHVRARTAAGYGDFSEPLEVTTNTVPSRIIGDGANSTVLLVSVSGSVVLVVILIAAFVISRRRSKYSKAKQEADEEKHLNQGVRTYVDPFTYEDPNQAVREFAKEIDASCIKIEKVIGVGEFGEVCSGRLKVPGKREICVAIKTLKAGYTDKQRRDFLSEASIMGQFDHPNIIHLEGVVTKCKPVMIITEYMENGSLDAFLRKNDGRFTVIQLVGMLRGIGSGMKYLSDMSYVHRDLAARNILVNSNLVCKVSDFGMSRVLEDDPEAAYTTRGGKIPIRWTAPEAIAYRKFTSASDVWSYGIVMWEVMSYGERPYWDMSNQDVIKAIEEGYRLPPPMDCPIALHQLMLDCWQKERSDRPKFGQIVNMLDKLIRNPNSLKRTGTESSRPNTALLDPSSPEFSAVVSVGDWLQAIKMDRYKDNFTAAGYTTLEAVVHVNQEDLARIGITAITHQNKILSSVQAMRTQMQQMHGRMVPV
In short: as §1

DYRK3 = biological target: T3, DYRK3 (Homo sapiens, UniProt O43781); settings: 1 μM test article, 1 mM ATP
T3 construct: AssayQuant Technologies, Inc. (service laboratory)
T3 sequence (O43781 1-588): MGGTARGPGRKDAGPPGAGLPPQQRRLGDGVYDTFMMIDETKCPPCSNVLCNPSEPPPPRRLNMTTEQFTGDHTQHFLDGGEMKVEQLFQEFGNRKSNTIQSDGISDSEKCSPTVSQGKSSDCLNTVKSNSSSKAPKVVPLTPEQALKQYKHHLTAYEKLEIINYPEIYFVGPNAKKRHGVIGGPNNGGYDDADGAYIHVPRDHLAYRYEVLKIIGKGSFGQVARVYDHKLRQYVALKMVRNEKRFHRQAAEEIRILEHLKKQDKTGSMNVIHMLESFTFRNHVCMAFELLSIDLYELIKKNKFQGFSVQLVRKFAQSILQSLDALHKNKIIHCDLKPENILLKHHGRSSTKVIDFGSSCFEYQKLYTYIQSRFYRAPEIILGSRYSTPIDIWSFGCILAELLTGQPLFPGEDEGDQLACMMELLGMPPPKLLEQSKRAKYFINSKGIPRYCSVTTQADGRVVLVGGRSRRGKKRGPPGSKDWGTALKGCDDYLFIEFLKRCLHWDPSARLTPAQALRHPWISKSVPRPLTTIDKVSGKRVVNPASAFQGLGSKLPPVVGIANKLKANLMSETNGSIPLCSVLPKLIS
In short: as §1

BMP2K/BIKE = BMP2K/BIKE (Homo sapiens, UniProt Q9NSY1); settings: 1 μM test article, 1 mM ATP
In short: as §1

MAPK14/P38A = biological target: T4, MAPK14/P38A (Homo sapiens, UniProt Q16539); settings: 1 μM test article, 1 mM ATP
T4 construct: AssayQuant Technologies, Inc. (service provider)
T4 sequence (Q16539 2-360 limits assumed): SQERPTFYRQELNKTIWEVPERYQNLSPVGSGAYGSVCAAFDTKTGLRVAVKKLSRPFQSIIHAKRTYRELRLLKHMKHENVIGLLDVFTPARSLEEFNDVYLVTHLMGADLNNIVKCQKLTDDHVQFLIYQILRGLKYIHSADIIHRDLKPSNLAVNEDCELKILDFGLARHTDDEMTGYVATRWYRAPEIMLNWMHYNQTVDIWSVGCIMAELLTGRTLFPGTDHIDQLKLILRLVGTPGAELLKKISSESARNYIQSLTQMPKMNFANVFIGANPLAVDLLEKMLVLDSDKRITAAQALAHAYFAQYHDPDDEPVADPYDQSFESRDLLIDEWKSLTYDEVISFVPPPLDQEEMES
In short: as §1

LTK = LTK (Homo sapiens, UniProt P29376); settings: 1 μM test article, 1 mM ATP
LTK, sequence (P29376 17-864, species assumed): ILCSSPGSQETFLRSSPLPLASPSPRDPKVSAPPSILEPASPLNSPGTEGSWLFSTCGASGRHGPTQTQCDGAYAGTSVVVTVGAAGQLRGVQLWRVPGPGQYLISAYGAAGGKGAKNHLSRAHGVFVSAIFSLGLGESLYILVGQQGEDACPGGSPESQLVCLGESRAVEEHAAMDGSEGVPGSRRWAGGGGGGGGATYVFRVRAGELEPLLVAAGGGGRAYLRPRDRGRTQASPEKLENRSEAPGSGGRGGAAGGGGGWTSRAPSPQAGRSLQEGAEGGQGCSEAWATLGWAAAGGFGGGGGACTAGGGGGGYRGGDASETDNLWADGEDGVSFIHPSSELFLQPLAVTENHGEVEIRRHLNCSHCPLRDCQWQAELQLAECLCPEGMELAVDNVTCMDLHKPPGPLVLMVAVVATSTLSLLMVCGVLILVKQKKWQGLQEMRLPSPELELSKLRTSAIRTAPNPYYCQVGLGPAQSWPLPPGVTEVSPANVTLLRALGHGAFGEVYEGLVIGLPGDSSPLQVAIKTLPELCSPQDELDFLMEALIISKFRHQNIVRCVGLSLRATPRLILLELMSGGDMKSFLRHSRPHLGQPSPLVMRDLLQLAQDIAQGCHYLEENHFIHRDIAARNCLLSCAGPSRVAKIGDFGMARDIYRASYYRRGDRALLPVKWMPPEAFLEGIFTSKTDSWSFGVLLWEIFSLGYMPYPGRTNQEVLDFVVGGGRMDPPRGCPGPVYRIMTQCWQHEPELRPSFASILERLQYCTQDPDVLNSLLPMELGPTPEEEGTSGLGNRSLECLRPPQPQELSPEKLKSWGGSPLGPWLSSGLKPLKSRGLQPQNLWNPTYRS
In short: as §1

MAP3K10 = MAP3K10 (Homo sapiens, UniProt Q02779); settings: 1 μM test article, 1 mM ATP
MAP3K10, sequence (Q02779 whole entry, species assumed): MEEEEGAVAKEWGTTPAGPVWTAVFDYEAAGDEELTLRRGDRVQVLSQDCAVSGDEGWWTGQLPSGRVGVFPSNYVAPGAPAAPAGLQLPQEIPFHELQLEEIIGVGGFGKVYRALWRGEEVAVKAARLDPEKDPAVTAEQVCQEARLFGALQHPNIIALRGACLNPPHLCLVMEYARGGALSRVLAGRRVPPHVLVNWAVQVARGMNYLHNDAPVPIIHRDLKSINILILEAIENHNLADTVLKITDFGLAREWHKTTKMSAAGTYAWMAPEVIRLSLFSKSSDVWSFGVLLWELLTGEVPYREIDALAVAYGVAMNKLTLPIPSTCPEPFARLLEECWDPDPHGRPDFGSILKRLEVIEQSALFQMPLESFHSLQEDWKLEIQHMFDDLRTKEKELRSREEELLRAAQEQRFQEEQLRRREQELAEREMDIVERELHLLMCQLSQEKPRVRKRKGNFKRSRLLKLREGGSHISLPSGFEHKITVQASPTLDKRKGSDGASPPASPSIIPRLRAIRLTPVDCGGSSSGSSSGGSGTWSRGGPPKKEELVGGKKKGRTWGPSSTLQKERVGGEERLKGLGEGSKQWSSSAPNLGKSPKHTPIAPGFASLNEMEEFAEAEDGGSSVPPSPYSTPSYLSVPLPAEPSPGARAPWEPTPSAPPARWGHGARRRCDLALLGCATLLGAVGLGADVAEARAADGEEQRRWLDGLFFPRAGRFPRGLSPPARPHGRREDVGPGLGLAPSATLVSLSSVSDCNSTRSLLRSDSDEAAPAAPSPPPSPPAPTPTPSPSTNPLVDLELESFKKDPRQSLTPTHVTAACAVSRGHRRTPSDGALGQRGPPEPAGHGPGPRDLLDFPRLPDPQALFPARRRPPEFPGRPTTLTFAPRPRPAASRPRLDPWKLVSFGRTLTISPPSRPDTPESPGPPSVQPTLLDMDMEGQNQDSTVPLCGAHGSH
In short: as §1

[1] = PTK2B, 1 μM test article, 1 mM ATP, read-out: % Inhibition

MAP3K11, sequence (Q16584 whole entry, species assumed): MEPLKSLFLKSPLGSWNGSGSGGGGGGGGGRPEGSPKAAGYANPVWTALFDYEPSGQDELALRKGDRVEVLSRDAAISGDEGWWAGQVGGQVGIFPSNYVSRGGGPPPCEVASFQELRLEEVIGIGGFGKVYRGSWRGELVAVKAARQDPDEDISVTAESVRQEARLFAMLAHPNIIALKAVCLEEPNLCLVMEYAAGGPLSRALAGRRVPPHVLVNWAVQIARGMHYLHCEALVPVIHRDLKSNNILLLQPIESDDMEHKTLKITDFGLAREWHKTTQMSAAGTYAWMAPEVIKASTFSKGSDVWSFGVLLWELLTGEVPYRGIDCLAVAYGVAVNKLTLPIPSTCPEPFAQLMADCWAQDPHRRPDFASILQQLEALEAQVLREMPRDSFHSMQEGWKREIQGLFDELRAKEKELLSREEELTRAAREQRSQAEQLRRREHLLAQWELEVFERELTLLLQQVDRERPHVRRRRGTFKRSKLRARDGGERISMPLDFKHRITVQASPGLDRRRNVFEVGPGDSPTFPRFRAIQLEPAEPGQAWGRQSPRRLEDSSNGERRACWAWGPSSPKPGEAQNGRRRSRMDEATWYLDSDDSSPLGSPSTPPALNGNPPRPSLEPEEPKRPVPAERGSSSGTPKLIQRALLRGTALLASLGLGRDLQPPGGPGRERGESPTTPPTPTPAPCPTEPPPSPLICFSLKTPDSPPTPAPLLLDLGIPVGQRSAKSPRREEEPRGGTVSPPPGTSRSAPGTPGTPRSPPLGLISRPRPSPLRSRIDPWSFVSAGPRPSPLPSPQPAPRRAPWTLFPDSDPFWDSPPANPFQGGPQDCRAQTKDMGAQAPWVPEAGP

Structure (SMILES)	inhibition at 1 µM (MAP3K11)	inhibition at 1 µM (NEK9)	inhibition at 1 µM (PTK2B; [1])	inhibition at 1 µM (CDC42BPB/MRCKB)	inhibition at 1 µM (EPHA4)	inhibition at 1 µM (DYRK3)	inhibition at 1 µM (BMP2K/BIKE)	inhibition at 1 µM (MAPK14/P38A)	inhibition at 1 µM (LTK)	inhibition at 1 µM (MAP3K10)	inhibition at 1 µM (PTK2B)
C=CC(=O)N1CCCC(c2c(F)cc(C(N)=O)c3[nH]c4c(c23)CCCCC4)C1 (single isomer, unassigned) [Compound 5-6]	16%	-9.3%	-16.1%	-31%	4.2%	2.8%	-18.6%	-8.3%	0.6%	-8.6%	
C=CC(=O)N1CCC[C@@H](c2c(F)cc(C(N)=O)c3[nH]c4c(c23)CCC4)C1 [Compound 10-2, (S)-8-(1-acryloylpiperidin-3-yl)-7-fluoro-1,2,3,4-tetrahydrocyclo-penta[b]indole-5-carboxamide]	-3.2%	2.4%	-8.8%	-10.2%	-44.2%	-3.3%	-6.6%	5%	24.4%	-17.7%	
C=CC(=O)N1CCC[C@@H](c2c(F)cc(C(N)=O)c3[nH]c4c(c23)CC2(CC4)CC2)C1 [Compound 6-2, (S)-5-(1-acryloylpiperidin-3-yl)-6-fluoro-1,2,4,9-tetrahydrospiro[carbazole-3,1′-cyclopropane]-8-carboxamide]	17.6%	18%		-12.6%	4.9%	-4.9%	-12.3%	28.2%	18.3%	18.9%	-15.4%
